The source of these data is PubChem BioAssay (NCI).

Structures are written as SMILES.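 All cell lines were grown in 96-well plates and treated with compound for 48 hours. TGI denotes the concentration required for complete inhibition of growth.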 Some results are limits rather than exact numbers.

Test systems include ACHN renal; SK-MEL-28 melanoma; RPMI-8226 leukemia; KM12 colon; DU-145 prostate; HCT-116 colon; SF-539 CNS; TK-10 renal; SR leukemia; LOX IMVI melanoma; UO-31 renal; A498 renal.
What all share (assay): inhibition of tumour cell growth, NCI panel, 48 h

`O=C1CCN2C(=N1)Sc1ccccc12`: the TGI in the experiment with ACHN renal, in the experiment on SK-MEL-28 melanoma, with RPMI-8226 leukemia, in the experiment with KM12 colon, in the experiment with DU-145 prostate and in the experiment on HCT-116 colon was > 100 µM each time. Besides, the TGI with SF-539 CNS, with TK-10 renal, in the experiment on SR leukemia and with LOX IMVI melanoma was > 100 µM in each case.
With `c1ccc(-c2cc(-c3ccncc3)cc(-c3ccncc3)n2)cc1`, the TGI in the experiment on ACHN renal, in the experiment with SK-MEL-28 melanoma, in the experiment with RPMI-8226 leukemia, in the experiment with KM12 colon, in the experiment on DU-145 prostate and with HCT-116 colon was > 100 µM each time. For the same compound, the TGI in the experiment with UO-31 renal, in the experiment on TK-10 renal, in the experiment with SR leukemia and in the experiment on LOX IMVI melanoma was > 100 µM each time.
As to `CC(=O)O[C@H]1CC[C@@]2(C)C(=CC[C@@H]3[C@@H]2CC[C@](C)(c2nnc(C)o2)[C@H]3CC#N)C1`, the TGI in the experiment on ACHN renal, in the experiment with RPMI-8226 leukemia, in the experiment on KM12 colon, in the experiment on A498 renal, in the experiment on DU-145 prostate and in the experiment with HCT-116 colon was > 100 µM each time. In addition, the TGI in the experiment on UO-31 renal, with SF-539 CNS, with TK-10 renal, in the experiment on SR leukemia and with LOX IMVI melanoma was > 100 µM in each case.
Take `CCN(CC)C(=S)N/N=C/c1cc(OC)ccc1O`: the TGI in the experiment on ACHN renal is > 100 µM; in the experiment with SK-MEL-28 melanoma, > 100 µM; in the experiment with KM12 colon it was > 100 µM; in the experiment with A498 renal, 18 µM; in the experiment with DU-145 prostate it was > 100 µM; in the experiment on HCT-116 colon, > 100 µM. Further, the TGI was 6.12 µM in the experiment with UO-31 renal; 36 µM in the experiment with SF-539 CNS; > 100 µM in the experiment with TK-10 renal; 8.9 µM in the experiment with SR leukemia; 12.5 µM in the experiment on LOX IMVI melanoma.
`Cc1ccc(S(=O)(=O)ON2C(=O)c3c(N)c(C#N)c(-c4ccccc4)c(-c4ccccc4)c3C2=O)cc1`: the TGI in the experiment on ACHN renal was 31.1 µM; with SK-MEL-28 melanoma, 29.4 µM; in the experiment with RPMI-8226 leukemia, 89.6 µM; in the experiment on KM12 colon, > 100 µM; with A498 renal, 44.1 µM; in the experiment on DU-145 prostate, 67.1 µM. Also, the TGI amounted to 33.1 µM in the experiment with HCT-116 colon; 58.2 µM in the experiment with SF-539 CNS; 36.8 µM in the experiment on TK-10 renal; 35.9 µM in the experiment on SR leukemia; 31.1 µM in the experiment on LOX IMVI melanoma.
In the case of `CCOC(=O)C1(C#N)C(C#N)(C#N)C1(C#N)C#N`, the TGI in the experiment on ACHN renal, in the experiment on SK-MEL-28 melanoma, in the experiment with RPMI-8226 leukemia, in the experiment on KM12 colon, in the experiment with A498 renal and with DU-145 prostate was > 100 µM throughout. Also, the TGI with HCT-116 colon, with UO-31 renal, in the experiment on TK-10 renal, with SR leukemia and in the experiment on LOX IMVI melanoma was > 100 µM throughout.
Consider `CCOC(=O)C1=CNC(C(=O)OCC)C1c1cccn1-c1ccccc1` (centres undefined), for which the TGI in the experiment with ACHN renal is > 100 µM; in the experiment on SK-MEL-28 melanoma it was 76.3 µM; in the experiment with KM12 colon, 98.7 µM; with A498 renal, > 100 µM; in the experiment with DU-145 prostate, > 100 µM; with HCT-116 colon it was 58.6 µM. The TGI is > 100 µM with UO-31 renal; 47.1 µM in the experiment on SF-539 CNS; > 100 µM with TK-10 renal; 55.3 µM with SR leukemia; 31 µM in the experiment on LOX IMVI melanoma.
For `CCCn1c(=O)c2nn3c(=O)n(CCC)c(=O)c3nn2c1=O`, the TGI in the experiment with ACHN renal, in the experiment with SK-MEL-28 melanoma, with RPMI-8226 leukemia, in the experiment on KM12 colon, in the experiment on DU-145 prostate and in the experiment on HCT-116 colon was > 100 µM in each case. Moreover, the TGI with UO-31 renal, in the experiment with SF-539 CNS, in the experiment with TK-10 renal, in the experiment with SR leukemia and in the experiment on LOX IMVI melanoma was > 100 µM in each case.
For the compound `Cc1cccc2c1c(=O)c1c(O)cc3c(c1n2C)C=CC(C)(C)O3`, the TGI with ACHN renal, in the experiment on SK-MEL-28 melanoma, in the experiment on RPMI-8226 leukemia, with KM12 colon, in the experiment with A498 renal and in the experiment with DU-145 prostate was > 100 µM throughout. The TGI in the experiment on HCT-116 colon, with SF-539 CNS, in the experiment on TK-10 renal, with SR leukemia and in the experiment on LOX IMVI melanoma was > 100 µM throughout.
With `C=CC(OC(=O)C(C)C)c1ccc(OC(=O)C(C)C)cc1` (centres undefined), the TGI with ACHN renal was 28 µM; in the experiment with SK-MEL-28 melanoma, 23.8 µM; with RPMI-8226 leukemia it was 11.7 µM; in the experiment with KM12 colon, 5.16 µM; in the experiment with A498 renal, 31.6 µM; in the experiment on DU-145 prostate, > 100 µM. For the same compound, the TGI is 20.6 µM with HCT-116 colon; 30.9 µM with UO-31 renal; 30.7 µM in the experiment on SF-539 CNS; > 100 µM with SR leukemia; 16.6 µM in the experiment with LOX IMVI melanoma.
`Cc1cc(C)c(S(=O)(=O)N(CCCN)OCCON(CCCN)S(=O)(=O)c2c(C)cc(C)cc2C)c(C)c1`: the TGI was 66.1 µM in the experiment on ACHN renal; 31 µM in the experiment with SK-MEL-28 melanoma; 6.33 µM in the experiment with RPMI-8226 leukemia; 4.49 µM in the experiment with KM12 colon; 53.9 µM in the experiment on A498 renal; > 100 µM in the experiment with DU-145 prostate. Besides, the TGI is 5.1 µM with HCT-116 colon; 58.7 µM in the experiment with UO-31 renal; 42.8 µM with TK-10 renal; > 100 µM in the experiment with SR leukemia; > 100 µM in the experiment with LOX IMVI melanoma.
Take `O=C1CC(C(OCc2ccccc2)C(OCc2ccccc2)C(OCc2ccccc2)C(COCc2ccccc2)OCc2ccccc2)CC(=O)N1` (centres undefined): the TGI in the experiment with ACHN renal, with SK-MEL-28 melanoma, in the experiment with RPMI-8226 leukemia, in the experiment on A498 renal, in the experiment with DU-145 prostate and in the experiment with UO-31 renal was > 100 µM throughout. For the same compound, the TGI in the experiment on TK-10 renal, in the experiment with SR leukemia and in the experiment with LOX IMVI melanoma was > 100 µM in each case.
For `Cc1c2ccccc2c(C2C3C(=O)N(c4cccc5ccccc45)C(=O)C3ON2Cc2ccc(CC(N)=O)cc2)c2ccccc12` (centres undefined), the TGI with ACHN renal, in the experiment with SK-MEL-28 melanoma, with KM12 colon, with A498 renal, in the experiment with DU-145 prostate and in the experiment on HCT-116 colon was > 50 µM each time. The TGI was > 50 µM with UO-31 renal; > 50 µM with SF-539 CNS; > 50 µM in the experiment on TK-10 renal; 37.6 µM in the experiment with SR leukemia; > 50 µM with LOX IMVI melanoma.
